# “And” between values parts separate entries of the source, which are not always exact repeats. Identical values can stand only once.
# Assays:
# [1] = Tracer metabolism in plasma and brain extract (radio-TLC); format: in vivo, rats; settings: for metabolism in plasma: living rats
# Method: Throughout the scan, arterial blood samples (15–19 samples; 0.10–0.15 mL each) were withdrawn from each rat through the arterial cannula. […] From each sample, 25 μL aliquots of whole blood were withdrawn. The rest was centrifuged at 3500 g for 5 min; 25 μL supernatant (plasma) aliquots were withdrawn and deproteinated with 75 μL of ice-cold acetonitrile. From the resulting 100 μL, 2–8 μL portions (i.e., 2–8 % of volume) were taken for thin layer chromatography analysis (radio-TLC) to assess radiometabolite content.
# The radioactivity of the plasma and whole blood samples was measured using a well-type gamma-counter (LKB-1282-Compugamma, LKB Wallac).
# Radio-TLC was performed on silica plates. Samples of the formulated tracers (diluted) were run along with deproteinated plasma samples to confirm the identity of the parent compound in plasma. Eluent systems used and TLC Rf values recorded are presented in Additional file 1: Table S1.
# Another half of the brain was homogenized in 3 mL of ice-cold acetonitrile using Heidolph IDAX600 homogenizer at maximum speed. Homogenate was centrifuged at 3500g for 5 min, and the supernatant (containing >95 % total radioactivity) was analyzed by radio-TLC in the same way as described above for the plasma.
# [2] = LogD measurement (n-octanol/phosphate buffer); format: physicochemical; settings: n-octanol / 1 M phosphate buffer pH 7.4
# Method: LogD of the tracers was measured using the radioactivity remaining on the HLB SPE cartridges after their elution with ethanol during the tracer formulation procedure (see above). The cartridge was dried with nitrogen for 5 min and eluted with at least 1.5 mL n-octanol. A 500 μL portion of octanol eluate was mixed with 500 μL of 1 M phosphate buffer (pH 7.4) and vigorously vortexed for 5 min. The mixture was then centrifuged at 17,000g for 10 min and 3 × 100 μL aliquots of organic and aqueous phase were loaded into a gamma-counter for radioactivity measurement. To correct for possible presence of radioactive impurities in the tracer, aliquots of organic and aqueous phases were later analyzed by radio-TLC, and the counts obtained from the gamma-counter were corrected according to the percentage of impurities found in aqueous and organic phases. LogD was calculated with the following formula: LogD=lgCPMorg×Xorgtracer/CPMaq×Xaqtracer,
# where CPMorg is the mean radioactivity of the organic aliquots, Xorgtracer is the mean percentage of radioactivity accounting for intact tracer in organic aliquots (as determined from radio-TLC), and CPMaq and Xaqtracer are the corresponding values for the aqueous phase.
# For each tracer batch used for logD determination, the experiment was performed in duplicate. LogD values are means calculated from at least two independent experiments.
# [3] = tested on: D2/3R; experiment: MicroPET study in rats; format: in vivo, Sprague-Dawley rats; settings: for blood-brain barrier penetration: PET in rats; for Brain uptake, peak: 3 min after radiotracer injection, control rats; for Striatum-to-cerebellum uptake ratio (PET): saline pre-treated rats, peak (45 min post-injection for [^18F]FEt-AMC13 and [^11C]raclopride)
# Method: Animal experiments were performed by licensed investigators in compliance with the Law on Animal Experiments of The Netherlands. The protocol was approved by the Committee on Animal Ethics of the University of Groningen. Young male (10–12 weeks of age, 300–350 g body weight) Sprague-Dawley rats (Harlan, the Netherlands) were used for all experiments. The rats were maintained at a 12-h light/12-h dark regime and were fed standard laboratory chow ad libitum.
# Distribution of the radiotracers was studied in rats pre-treated, at random, with physiological saline (controls) or raclopride tartrate (1 mg/kg calculated per raclopride base, equivalent to 2.9 μmol/kg). Saline and raclopride were administered intravenously (1 mL/kg injected volume).
# An additional group of saline pre-treated rats, injected with [^11C]raclopride, served as positive controls for D2/3R-specific brain uptake.
# Two rats were scanned simultaneously. Before all manipulations, animals were anesthetized with a mixture of isoflurane/air (inhalation anesthesia, 5 % ratio during induction, 2 % at maintenance). Cannulae were placed into the rats’ left femoral arteries and veins; the operation took 45–50 min. The rats were positioned supine inside the camera (Focus 220 microPET, Siemens-Concorde), one above the other with their heads in the camera’s field of view. A 515-s transmission scan with a Co-57 point source was performed. Tracer was injected through the venous cannula as a slow bolus (1 mL volume, 60 s long) using an infusion pump. The second (upper) animal was injected 16 min after the first (lower).
# PET acquisition was started during the injection of radioactivity in the first rat. A 106-min long (76 min long in the case of [^11C]raclopride) list-mode acquisition protocol was used for the scan.
# List-mode data from the 106-min-long and 76-min-long scans were reframed into, respectively, 90-min-long and 60-min-long dynamic sequences of 6 × 10, 4 × 30, 2 × 60, 1 × 120, 1 × 180, 4 × 300, 3 × 600, and (for 90-min-long scans) 2 × 900 s frames. The data were reconstructed per time frame using an iterative reconstruction algorithm (attenuation-weighted 2-dimensional ordered-subset expectation maximization, provided by Siemens; 4 iterations, 16 subsets; zoom factor 2). Datasets were fully corrected for random coincidences, scatter, and attenuation. Data from the transmission scan were used for attenuation correction. The final datasets consisted of 95 slices, with a slice thickness of 0.8 mm and an in-plane image matrix size of 128 × 128 and pixel size of 0.47 × 0.47 mm.
# Reconstructed images were analyzed with Inveon 2.0 software (Siemens Medical Solutions, USA, Inc). Regions of interest (ROIs) were drawn manually on a T2-weighted MRI template of rat brain around the striatum, brainstem, cortex, hippocampus, hypothalamus, thalamus, olfactory bulbs, and cerebellum around the whole brain and around the pituitary gland. The MRI template was co-registered with the PET scan by image fusion. The time-activity curves (TAC) per ROI were determined in Bq/cm^3 units and converted into standardized uptake values (SUVs).
# Degree of D2/3R-specific binding of the tracers was characterized by BPND (as given above) or the specific binding ratio (SBR) given as target region activity/cerebellar activity - 1. Both were calculated under control conditions and in response to the raclopride challenge.
Compound,metabolism in plasma [1],logD [2],blood-brain barrier penetration [3],"Brain uptake, peak ([3]; PET) [% ID]",Striatum-to-cerebellum uptake ratio (PET) [3],intact tracer in radioactivity of brain tissue extract ([1]; 35 min post-injection) [%],"entry of radiometabolites into the brain ([1]; rat, in vivo)","decrease in D2/3R-specific binding in the striatum in vivo ([3]; 1 mg/kg (2.9 μmol/kg) raclopride, range over estimates)","decrease of peak PET-based striatal SBR ([3]; 1 mg/kg raclopride, p = 0.25) [%]","D2/3R occupancy by the tracer itself (crude estimation) ([3]; approach of Skinbjerg et al., all experiments)",peak PET-based striatal SBR ([3]; pre-treatment with 1 mg/kg (2.9 μmol/kg) raclopride),peak PET-based striatal SBR ([3]; saline pre-treated),effect of raclopride pre-treatment on radioactivity distribution in the brain ([3]; 1 mg/kg raclopride),"Brain uptake ([3]; PET, 60 min post-injection) [% ID]"
"Oc1ccc2c(c1)O[C@@H](CNCc1ccc(OCCCC[18F])cc1)CC2 [[^18F]FBu-AMC13, (R)-2-[(4-(4-[^18F]fluorobutoxy)benzylamino)methyl]chroman-7-ol]",quickly metabolized in the plasma,2.5 ± 0.06,good blood-brain barrier (BBB) penetration,0.9,1.41 ± 0.08,–,–,–,–,–,–,–,–,–
Oc1ccc2c(c1)O[C@@H](CNCc1ccc(OCC[18F])cc1)CC2 [[^18F]FEt-AMC13],quickly metabolized in the plasma,1.67 ± 0.07,good blood-brain barrier (BBB) penetration,0.7,2.08 and 2.1 and 2.08 ± 0.25,92,did not enter the brain,17–39%,17,no more than 3%,0.90 ± 0.11,1.08 ± 0.25,–,–
"Oc1ccc2c(c1)O[C@@H](CNCCN1CCN(c3ccc(OCC[18F])cc3)CC1)CC2 [[^18F]FEt-AMC15, (R) 1-(4-(2-[^18F]fluoroethoxy)phenyl)-4-(4-(7-hydroxychroman-2-yl)-3-azabutyl)-piperazine]",more stable,1.48 ± 0.002,essentially did not penetrate the BBB,0.2,–,–,–,–,–,–,–,–,no detectable alterations of radioactivity distribution in the brain,0.04
